Values joined by “and” are separate entries in the source; they are usually repeats but may differ in a detail not shown here. Identical values can stand only once. Like-named read-outs stand apart in the source and are kept apart here.
Assays:
[1] = test system: E. coli co-producing MBLs and class A/D serine carbapenemases; experiment: Carbapenem MIC, E. coli co-producing MBLs and class A/D serine carbapenemases; format: cell-based; details: carbapenem alone or with 50µM ZN148
Protocol: (§1) MICs of carbapenems alone and in combination with inhibitors were determined by broth microdilution according to the Clinical and Laboratory Standards Institute (CLSI) guidelines ([48]) using either premade plates (TREK Diagnostic Systems/Thermo Fisher Scientific, East Grinstead, United Kingdom) with meropenem or in-house-prepared plates with meropenem, imipenem, and doripenem. ZN148 and other inhibitors were tested at a fixed concentration of 50 μM. Cation-adjusted Mueller-Hinton medium (TREK Diagnostic Systems/Thermo Fisher Scientific; Becton Dickinson, Franklin Lakes, NJ) were used as growth medium. The plates were incubated for 20 h at 37°C. ZN148, ZN222, ZN223, ZN228, and TPA were initially tested in combination with meropenem using two indicator strains: NDM-1-producing K. pneumoniae ([49], [50]) and VIM-2-producing P. aeruginosa ([51]). The activity of ZN148 were subsequently tested against two extended strain collections: (i) in combination with meropenem against MBL-producing Enterobacterales (n = 62), MBL-producing P. aeruginosa (n = 9) and MBL- and class D carbapenemase-coproducing Enterobacterales (n = 5) from the strain collection at the Norwegian National Advisory Unit on Detection of Antimicrobial Resistance and (ii) in combination with meropenem, imipenem, and doripenem against globally collected MBL-producing E. coli (n = 87), K. pneumoniae (n = 85), P. aeruginosa (n = 52), and A. baumannii (n = 6), MBL- and class A/D carbapenemase-coproducing E. coli (n = 11), K. pneumoniae (n = 15) and A. baumannii (n = 7) at IHMA Europe, Sàrl, Switzerland. E. coli ATCC 25922 and P. aeruginosa ATCC 27853 were used as quality control strains. The MBL inhibitors were also tested for intrinsic antibacterial activity against the strains.

[2] = test system: class A carbapenemase (KPC)-producing E. cloacae; experiment: Carbapenem MIC, class A carbapenemase-producing E. cloacae; format: cell-based; details: carbapenem alone or with 50µM ZN148
Protocol: as §1

[3] = test system: NDM-1-producing A. baumannii strains (n=6); experiment: Carbapenem MIC, NDM-1-producing A. baumannii; format: cell-based; details: carbapenem alone or in combination with 50µM ZN148; one value per strain (n=6)
Protocol: as §1

[4] = test system: K. pneumoniae co-producing MBLs and class A/D serine carbapenemases; experiment: Carbapenem MIC, K. pneumoniae co-producing MBLs and class D carbapenemases; format: cell-based; details: carbapenem alone or with 50µM ZN148, one value per strain
Protocol: as §1

[5] = test system: A. baumannii co-producing MBLs and class A/D serine carbapenemases; experiment: Carbapenem MIC, A. baumannii co-producing NDM-1 and class D carbapenemases; format: cell-based; details: carbapenem alone or with 50µM ZN148, one value per strain
Protocol: as §1

[6] = test system: class A carbapenemase (KPC)-producing E. coli; experiment: Carbapenem MIC, class A carbapenemase-producing E. coli; format: cell-based; details: carbapenem alone or with 50µM ZN148
Protocol: as §1

VIM-2 [7] = target: T1, VIM-2 (Escherichia coli, UniProt Q5U7L7); format: biochemical; details: after incubation with inhibitor and its removal (PD-10); 100 μM ZnSO4
T1 construct: made in house
Protocol: For reversibility of enzyme activity after incubation with ZN148, 3 ml of VIM-2 or NDM-1 was diluted with or without ZN148 in Chelex HEPES buffer (pH 7.5) and subsequently incubated for 1 h on ice. Then, 2.5 ml of each solution was loaded onto an equilibrated PD-10 column (GE Healthcare, Pittsburgh, PA), washed with 1 ml, and eluted with 1.5 ml of Chelex HEPES buffer (pH 7.5), respectively. Samples spiked and not spiked with inhibitor were diluted to a final enzyme concentration of 1 nM VIM-2 and 3 nM NDM-1. The initial reaction velocity was determined by adding nitrocefin (Merck) for VIM-2 or imipenem (Sigma-Aldrich) for NDM-1 at final concentrations of 50 and 100 μM, respectively. The initial enzyme reactions were recorded at 25°C. Inhibitor and enzyme alone were included as controls. All measurements were performed at least in duplicates. For enzyme restorability, pre- and postcolumn samples were supplemented with ZnSO4 (Sigma-Aldrich) to a final concentration of 100 μM and allowed to incubate for 5 min at 25°C. The initial enzyme velocity was then determined as described above.

VIM-2 [8] = target: T1, VIM-2; format: biochemical; details: VIM-2 preincubated with inhibitor
Protocol: VIM-2 (0.4 μM) was preincubated on ice for 30 min with or without ZN148. Complete protein unfolding was archived in 50 mM HEPES buffer (pH 7.5) supplemented with 1 μM ZnSO4 (Sigma-Aldrich) and 8 M urea (Merck, Darmstadt, Germany). Refolding was achieved by a stepwise buffer exchange using centrifugal cutoff filters (10 kDa; Merck) and decreasing concentrations of urea ([…] in 50 mM HEPES buffer [pH 7.5]). VIM-2 was diluted to a final concentration of 1 nM, and the enzyme activity was measured by adding nitrocefin (Merck) to a final concentration of 50 μM.

[9] = test system: NDM-1-producing K. pneumoniae K66-45; experiment: Meropenem MIC, broth microdilution, indicator strain K66-45; format: cell-based; details: meropenem alone or in combination with 50 μM of the labelled inhibitor
Protocol: as §1

HepG2 cells = experiment: In vitro toxicity, alamarBlue viability; format: cell-based, human; details: 24 h
Protocol: The human hepatoblastoma HepG2 cell line (HB-8065; ATCC, Manassas, VA) was cultured in DMEM-GlutaMAX (5.5 mM glucose; Thermo Fisher) supplemented with 10% fetal bovine serum (Sigma-Aldrich), streptomycin (100 μg/ml; Gibco/Thermo Fisher), and penicillin (100 U/ml; Gibco/Thermo Fisher) at 37°C in 5% CO2. For viability assays, cells were seeded in white 96-well Nunclon plates (Sigma-Aldrich) at a density of 20,000 cells/well and left overnight to adhere. ZN148 and TPA (Sigma-Aldrich, Darmstadt, Germany) dissolved in dimethyl sulfoxide (DMSO; (Sigma-Aldrich) were added to the white 96-well plates containing 20,000 HepG2 cells/well at concentrations ranging from 1 to 1 × 10^−3 mM (a DMSO concentration kept below 1%), followed by incubation for 24 h at 37°C in 5% CO2. After 24 h, alamarBlue cell viability reagent (Thermo Fisher, Carlsbad, CA) was added (10% final concentration), followed by incubation for 4 h at 37°C. The proportion of viable cells in each well was measured in a fluorescence plate reader (Clariostar; BMGlabtech, Germany) at excitation 550 nm/emission 603 nm ([56]). Data from eight replicates were fitted by nonlinear regression to determine IC50 values using Prism (GraphPad Software, Inc.).

[10] = read-out: affinity toward Zn^2+; cited from earlier work
[11] = test system: VIM-2-producing P. aeruginosa K34-7; experiment: Meropenem MIC, broth microdilution, indicator strain K34-7; format: cell-based; details: meropenem alone or in combination with 50 μM of the labelled inhibitor
Protocol: as §1

NDM-1 = target: T2, NDM-1 (Klebsiella pneumoniae, UniProt C7C422); experiment: Time-dependent inactivation kinetics of purified NDM-1 (imipenem); format: biochemical
T2 construct: made in house
Protocol: (§2) Protein expression and purification of NDM-1 and VIM-2 were performed as previously described ([36], [43], [57]). Stock solutions of purified NDM-1 and VIM-2 were prepared in 50 mM HEPES buffer (pH 7.5; Merck). Inhibition of NDM-1 and VIM-2 were determined for ZN148 and the analogues ZN222, ZN223, and ZN228 at different concentrations of inhibitor after preincubation times of 2, 8, 15, 25, and 32 min in 50 mM HEPES buffer (pH 7.5) supplemented with 1 μM ZnSO4 (Sigma-Aldrich) and bovine serum albumin (Sigma-Aldrich; final concentration, 2 μg/ml) at 25°C. Concentrations of 1 nM VIM-2 and 30 nM NDM-1 were used, and the reaction was initiated by the addition of 30 μM nitrocefin (Merck) for VIM-2 or 100 μM imipenem (Sigma-Aldrich) for NDM-1. The reaction was measured at 482 nm (VIM-2) or […] (NDM-1) in either standard 96-well plates (Thermo Fisher Scientific) for VIM-2 or UV-transparent 96-well plates (Corning, Kennebunk, ME) for NDM-1 at 25°C in a SpectraMax Plus plate reader (Molecular Devices). All of the enzyme and substrate concentrations indicated are the final concentrations in the assay. The enzyme activity as a percentage was calculated based on the initial velocity and compared to the control without inhibitor compound. All tests were performed at least in duplicates.
(§3) The observed rate constant (kobs) per inhibitor concentration was calculated from the slope of a semilog plot of the enzyme activity in percent versus preincubation time.
(§4) By fitting these values, the irreversible kinetic parameters maximum inactivation rate (kinact) and the inhibitor concentration that produces half-maximal rate of inactivation (KI) were obtained. Finally, the inhibitors were characterized by calculating kinact/KI. Where no saturation curve could be observed, KI and kinact were determined from the linear part of plot 1/kobs versus 1/[I].

VIM-2 [12] = target: T1, VIM-2; experiment: Time-dependent inactivation kinetics of purified VIM-2 (nitrocefin); format: biochemical
Protocol: as §2, §3, §4

[13] = Enterobacter cloacae, KPC-3 strain, read-out: MIC
[14] = Escherichia coli, KPC-3 strain, read-out: MIC
[15] = KPC-2 strains, one value per strain

T2 sequence (C7C422 29-270, looked up): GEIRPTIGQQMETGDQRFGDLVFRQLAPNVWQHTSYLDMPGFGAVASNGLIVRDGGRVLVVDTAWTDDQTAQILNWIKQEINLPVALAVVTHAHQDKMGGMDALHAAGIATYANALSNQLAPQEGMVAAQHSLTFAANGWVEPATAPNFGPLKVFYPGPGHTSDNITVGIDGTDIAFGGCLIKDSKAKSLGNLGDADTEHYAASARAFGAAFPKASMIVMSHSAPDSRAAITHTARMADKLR

SMILES: C[C@@H](O)[C@H]1C(=O)N2C(C(=O)O)=C(S[C@@H]3CN[C@H](CNS(N)(=O)=O)C3)[C@H](C)[C@H]12 [DOR, doripenem]
- MIC ([1]; NDM-1 + GES-2 strain): 64 µg/mL
- MIC ([1]; NDM-5 + OXA-48 strain): > 64 µg/mL
- MIC ([1]; NDM-5 + OXA-181 strains, one value per strain): 64 µg/mL
- MIC ([1]; NDM-5 + OXA-232 strains, one value per strain): > 64 µg/mL
- MIC [2, 13]: 2 µg/mL
- MIC [3]: > 64 µg/mL
- MIC ([4]; NDM-1 + OXA-232 strains): > 64 µg/mL
- MIC ([4]; NDM-5 + OXA-181 strains): > 64 µg/mL
- MIC ([5]; NDM-1 + OXA-23-like strains): > 64 µg/mL
- MIC ([5]; NDM-1 + OXA-24-like, OXA-58-like strains): > 64 µg/mL
- MIC ([6]; Escherichia coli, KPC-2 strains, one value per strain, read-out: MIC): 4 µg/mL
- MIC [6, 14]: 4 µg/mL
- MIC [6, 15]: 2 µg/mL

SMILES: O=C(O)CN(CCN(CC(=O)O)CC(=O)O)CC(=O)O [EDTA]
- MBL activity restored by addition of exogenous zinc, compared to untreated control (VIM-2 [7]): complete or nearly complete (∼80%) restoration of activity
- enzyme activity after unfolding and stepwise refolding, of control activity (VIM-2 [8]): > 80%

SMILES: C[C@@H](O)[C@H]1C(=O)N2C(C(=O)O)=C(SCCN=CN)C[C@H]12 [IPM, imipenem]
- MIC ([1]; NDM-1 + GES-2 strain): 16 µg/mL
- MIC ([1]; NDM-5 + OXA-48 strain): 32 µg/mL
- MIC ([2]; Enterobacter cloacae, KPC-2 strains, one value per strain, read-out: MIC): 8 µg/mL
- MIC [2, 13]: 16 µg/mL
- MIC [2, 15]: 16 µg/mL
- MIC [3]: > 64 µg/mL
- MIC ([4]; NDM-1 + OXA-232 strains): > 64 µg/mL
- MIC ([4]; NDM-5 + OXA-181 strains): > 64 µg/mL
- MIC ([5]; NDM-1 + OXA-23-like strains): > 64 µg/mL
- MIC [6, 14]: 8 µg/mL

SMILES: c1ccc(CN(Cc2ccccn2)Cc2ccccn2)nc1 [TPA, Tris-picolylamine]
- meropenem MIC [9]: 0.125 µg/mL
- IC50 (HepG2 cells): 9.8 µM and 9.75 µM
- Kd [10]: 0.01 nM
- meropenem MIC [11]: 1 µg/mL

SMILES: CN(C[C@H](O)[C@@H](O)[C@H](O)[C@H](O)CO)C(=O)c1ccc(CN(Cc2ccccc2)Cc2ccccc2)nc1 [ZN222]
- meropenem MIC [9]: 32 µg/mL
- meropenem MIC [11]: 32 µg/mL

SMILES: CN(C[C@H](O)[C@@H](O)[C@H](O)[C@H](O)CO)C(=O)c1ccc(CN(Cc2ccccc2)Cc2ccccn2)nc1 [ZN223]
- kinact (NDM-1): 0.000633 s⁻¹
- kinact/KI (NDM-1): 1 M⁻¹ s⁻¹
- meropenem MIC [9]: 32 µg/mL
- kinact (VIM-2 [12]): 0.000617 s⁻¹
- kinact/KI (VIM-2 [12]): 11.7 M⁻¹ s⁻¹
- meropenem MIC [11]: 32 µg/mL

SMILES: CN(C[C@H](O)[C@@H](O)[C@H](O)[C@H](O)CO)C(=O)c1ccc(CN(Cc2ccccn2)Cc2ccccn2)cc1 [ZN228]
- kinact (NDM-1): 0.00127 s⁻¹
- kinact/KI (NDM-1): 1.83 M⁻¹ s⁻¹
- meropenem MIC [9]: 32 µg/mL
- kinact (VIM-2 [12]): 0.000567 s⁻¹
- kinact/KI (VIM-2 [12]): 23.3 M⁻¹ s⁻¹
- meropenem MIC [11]: 32 µg/mL
